Assay results as given in patent US12582635B2, “Compositions and methods for treating cancer with atypical BRAF mutations” (BIOMED VALLEY DISCOVERIES, INC., priority 2017, dated 2026).
Where two headings read alike, the source gives them in different places.

How the values were obtained:
ERK1/2 [1] = conditions: Morris et al., 2013; cited from earlier work
[2] = tested on: cancers harboring atypical (non-V600E/K) BRAF mutations; assay: solid tumor Phase 1b trial of BVD-523, tumor response by RECIST v1.1 and duration of treatment; assay type: in vivo, human; conditions: for duration of treatment: single patient
Experimental: The waterfall plot depicted in FIG. 2 provides an illustration of human clinical trial patient information showing each individual patient's response to treatment with BVD-523, as measured by % change in tumor burden. Patients generally received 600 mg, twice daily (BID), with some patients receiving a deescalated dose of 300 mg-400 mg BID if side effects were not manageable with other palliative medication. […] The horizontal axis across the plot serves as a baseline measurement for each patient. The vertical axis is a measure of the maximum percentage change from baseline; i.e., percent growth or reduction of tumor burden by radiologic measurement according to RECIST v1.1. Radiologic measurement comprised computed tomography (CT) scan and, rarely, magnetic resonance imaging (MRI). The tumor burden data represented by FIG. 2 is arranged from the worst value (i.e. greatest progression of tumor burden) on the left side of the plot to the best value (i.e., greatest reduction of tumor burden) on the right side of the plot. RECIST v1.1 response criteria for measured target lesions have been described previously. (See Eisenhauer, E. A., et al., New response evaluation criteria in solid tumours: Revised RECIST guideline (version 1.1), European J. of Cancer 45, 228-247 (2009), incorporated by reference herein in its entirety). […] Members of Group 1 are any patients with any BRAF mutation in any tumor type other than colorectal cancer (CRC) and non-small cell lung carcinoma (NSCLC), and that have not been previously treated with a MAPK pathway inhibitor. The members of Group 2 are patients with any BRAF mutation in CRC that have not been previously treated with a MAPK pathway inhibitor. The members of Group 3 are patients having a tumor with a BRAF […] mutation that is refractory to MAPK inhibitor treatment. The members of Group 6 are patients with any BRAF mutation present in NSCLC. […] The duration of treatment for each subject in each group is illustrated from the top (longest treatment duration) to bottom (least treatment duration) of the groups. The horizontal axis represents the duration, in days, that the patient was on the study. […] All 28 patients measured for RECIST v1.1 response criteria are included, plus additional patients not evaluated by RECIST v1.1 (diamond=partial response; circle=stable disease: vertical bar=progressive disease; triangle=not evaluated). The mean duration of BVD-523 treatment before discontinuation for tumors harboring the same BRAF mutation was: […], 73.6 days; […], 208.14 days: […], 50.25 days: […], 73.3 days; […], 63.5 days. For single patient representatives of specific BRAF mutations, the duration of treatment was: […], 304 days: […], 84 days: […], 77 days: BRAF fusion, 65 days: BRAF-AGAP3 rearrangement, 43 days: BRAF exon 15 splice variant, 15 days. By genomic screening of cancer patients for BRAF mutation and treating them prior to full in vitro characterization of those mutations (as a driver mutation), BVD-523 is shown to be useful to interrogate and discover efficacious treatment options for patients carrying mutations in BRAF. The clinical population of patients and the efficacy is not defined primarily by tumor type, but rather mutational status of enzymes such as BRAF, upstream of ERK 1/2 kinase activation.

ERK1/2 [3] = assay: autophosphorylation of ERK (mechanism of action of ERK1/2 inhibitors); assay type: biochemical; conditions: stated in the description, no test described
[4] = 28 evaluable patients, RECIST v1.1, generally 600 mg BID

| SMILES | effect on autophosphorylation of ERK (ERK1/2 [1]) | number of patients with partial response (PR) [2, 4] | number of patients with progressive disease at first evaluation [2, 4] | number of patients with stable disease [2, 4] [patients] | patients with partial response or stable disease ([2]; patients with atypical (non-V600E/K) BRAF mutations, RECIST v1.1) | duration of treatment ([2]; BRAF F247L) [days] | duration of treatment ([2]; BRAF G466V) [days] | duration of treatment ([2]; BRAF L485W) [days] | duration of treatment ([2]; BRAF exon 15 splice variant) [days] | duration of treatment ([2]; BRAF fusion) [days] | duration of treatment ([2]; BRAF-AGAP3 rearrangement) [days] | mean duration of treatment before discontinuation ([2]; tumors harboring BRAF D594) [days] | mean duration of treatment before discontinuation ([2]; tumors harboring BRAF G469) [days] | mean duration of treatment before discontinuation ([2]; tumors harboring BRAF K601E) [days] | mean duration of treatment before discontinuation ([2]; tumors harboring BRAF L597) [days] | mean duration of treatment before discontinuation ([2]; tumors harboring BRAF T599 Dup) [days] | effect on autophosphorylation of ERK (ERK1/2 [3]) |
| --- | --- | --- | --- | --- | --- | --- | --- | --- | --- | --- | --- | --- | --- | --- | --- | --- | --- |
| O=C(Nc1ccc2[nH]nc(-c3ccncc3)c2c1)[C@@H]1CCN(CC(=O)N2CCN(c3ccc(-c4ncccn4)cc3)CC2)C1 [SCH772984] | inhibit autophosphorylation of ERK |  |  |  |  |  |  |  |  |  |  |  |  |  |  |  |  |
| CC(C)Nc1cc(-c2c[nH]c(C(=O)N[C@H](CO)c3cccc(Cl)c3)c2)c(Cl)cn1 [BVD-523] |  | Five | Three | 19 | 24 out of 28 | 84 | 77 | 304 | 15 | 65 | 43 | 73.6 | 208.14 | 50.25 | 73.3 | 63.5 | allows for the autophosphorylation of ERK while still inhibiting ERK |
